Experimental data reported in patent publication US10323019B2, “Pyrazolylaminobenzimidazole derivatives as JAK inhibitors” (Eli Lilly and Company, priority 2016, dated 2019).
Like-named read-outs stand apart in the source and are kept apart here.

Assays:
JAK1 [1] = molecular target: T1, JAK1 (Homo sapiens (Human), UniProt P23458); test: JAK LanthaScreen Kinase Assay (TR-FRET), JAK1 in vitro enzyme assay; type: biochemical; details: 20.0 μM ATP
Procedure: The JAK LanthaScreen™ Kinase Assay (Invitrogen) is used to determine the ability of test compounds to inhibit JAK1, JAK2, and JAK3 kinase activity. These are TR-FRET assay formats that use long-lifetime terbium labeled antibody as the donor species and GFP-STAT1 as the acceptor species. Use the TR-FRET ratio to monitor JAK kinase activity where an increase in phosphorylation of the GFP-STAT1 results in an increase in the TR-FRET ratio. Perform the kinase reaction using a 12.5 μl reaction volume in shallow black 384-well Proxiplate®. Add reagents to obtain final reaction conditions of […], 1.76 mM Triton X-100, ATP (20.0 μM for JAK1 and JAK3 or 5 μM for JAK2) enzyme assays, 10.0 mM MgCl2, 1 mM EGTA and 0.01% Brij-35, […] GFP-STAT1, 14 nM JAK1 enzyme for JAK1, 1.0 nM for JAK2 or 2.5 nM for JAK3 enzyme assays, and 4% DMSO and serial dilutions of test compound (diluted 1:3 from 20,000 to 1 nM). Following ATP/GFP-STAT1 addition, centrifuge the assay plates for 1 minute at 1000 revolutions per minute (RPM). Allow the plates to incubate at RT for 60 minutes and then add 12.5 μl of a stopping buffer containing 20 mM EDTA, 2 nM Terbium-anti-phosphorylated Signal Transducers and Activators of Transcription [phosphorylation Tyrosine 701 amino acid] […] Use ACTIVITYBASE® 4.0 to fit the percent inhibition and ten-point compound concentration data to a four-parameter logistic equation.

JAK1 [2] = molecular target: T1, JAK1; test: Human whole blood assay: pSTAT3 (JAK1) in lymphocytes, IL6 stimulated; type: cell-based; details: IL6, pSTAT3 in CD4+ lymphocytes
Source text: Human Whole Blood Assays: Determination of pSTAT3 (JAK1) and pSTAT5 (JAK2) in Lymphocytes and Monocytes
Human whole blood (HWB) assays were developed and validated to determine the JAK1 and JAK2 selectivity of test compounds.
Dilute the test compounds, 10 points, (1:3) in DMSO 100% and a step down in PBS+0.1% BSA. Use Tofacitinib as a reference compound in each plate, as well as a maximum signal (stimulated wells) and a minimum signal (no stimulated wells) in order to normalize data. Obtain a pool of HWB from 4 different healthy donors. Plate the blood in a 96 well plate using a Tecan Evo 96w and incubate with test compounds for 1 h at RT. After this time of incubation, stimulate HWB with both IL6 (206-IL, R&D System) and GM-CSF (PHC2015, Life Technologies) for 15 more minutes. Add a viability dye (65-0865, eBiosicience) (1:1000) using a Tecan Evo 96w (5×mix).
The final concentrations in the assay are the following: 100 (μM for compounds, 50 μM for Tofacitinib, 0.1 μg/mL IL6, 0.038 μg/mL GM-CSF and 1% DMSO. Lyse and fix HWB using a Lyse/fix buffer (558049, Becton Dickinson) by adding 900 μL of lysis buffer using Tecan Evo 96w (mix 10× high speed). Incubate HWB in bath at 37° C. for 10 minutes. Centrifuge HWB at 500 G, 8 min and discard supernatant. Add cold MeOH using a Tecan Exo 96w in order to permeabilize cells. Incubate blood cells on ice during 30 min. After this, wash cells 2× using Staining buffer (554656, Becton Dickinson), spin at 3000 rpm, 2 min. discard supernatant, and add the following antibodies: Anti-Human CD4 PE, 1:100 (12-0048, eBioscience), Anti-Human CD33 eFluor® 450, 1:50 (48-0337, eBioscience), Phospho-STAT5 (Tyr694) (C71E5) Rabbit mAb, 1:100 (Alexa Fluor® 488 Conjugate) (3939, Cell Signaling) and Phospho-STAT3 (Tyr705) (D3A7) XP™ Rabbit mAb 1:200, (Alexa Fluor® 647 Conjugate) (4324, Cell Signaling). Incubate the antibodies for 1 h in dark at RT, then wash cells 2× and read on Cytometer Macsquant (Miltenyi Biotec). Gate the data on CD4+ (lymphocytes) and CD4Low CD33Hi (monocytes), to measure the fluorescence intensity from cells expressing pSTAT3 and pSTAT5, respectively. Analyze the data using FlowJo v 10 and then normalize the median of fluorescence versus maximum and minimum signal to determine the IC50s. Use Graph Pad Prism 5™ to represent the dose response curves.

JAK1 [3] = molecular target: JAK1 (Rattus norvegicus, UniProt G3V9W2); test: Rat PK/PD assay: rat whole blood ex vivo JAK1 activity (pSTAT3); type: in vivo; details: 30 mpk oral
Procedure: (§1) Male Wistar rats, 265-285 grams (Charles River) were used for oral gavage dosing. Dose the animals (Oral gavage) at 1.82 mL/kg (0.5 mL per 275 grams). Formulate the compounds in 1% HEC vehicle containing 0.25% Tween 80 and 0.05% antifoam with 1.1 molar equivalent of methanesulfonic acid to form an in situ salt. Formulate compounds once per week, and store at 4° C. At various time points, obtain rat whole blood via tail vain bleeding in Multivette 600 μl EDTA blood collection tubes (cat#151671100PK100, Sarstedt Inc) and use for ex vivo JAK1 and JAK2 assay. Aliquot 100 ul of blood from each rat into a 96-well round bottom plate. Stimulate whole blood by recombinant IL-6 ([…], and recombinant mouse GM-CSF (cat#415-ML, lot#, R&D) for 12 min at rt. After cytokine stimulation, add whole blood into Lyse/fix (cat#558049, lot#, BD) in minitube rack; mix well 5×. Incubate 10 min at rt. Spin minitube rack at 600 g for 4 min. Aspirate with 12-channel manifold. Transfer contents of minitube rack to 96 well round-bottom plates. Spin down the cells at 3000 rpm for 1 min and discard the supernatant. Mix the cells in the well with 100 ul ice-cold MeOH and incubated on ice for 30 min. Add 150 ul PBS+2% FCS into each well and spin down at 3000 rpm, 2 min. Wash cells with 2× of 250 ul PBS+2% FCS. For cell surface and intracellular staining, mix all antibodies and add into each well and incubate 1 hr at rt in dark. The antibodies used for staining are as following: pSTAT3, Alexa Fluor 647 (cat#4324s, lot, Cell Signaling); pSTAT5, Alexa Fluor 488 (cat#3939s, lot#, Cell Signaling), anti-rat CD4, V450 (cat#561579, lot#. BD); anti-rat CD11b, Percp eFluor710 (cat#12-0110-82, lot#, eBioscience) After staining cells with Abs, wash the plates twice with PBS+2% FCS and finally re-suspend in the same 150 ul of solution. Assess cell viability by Viability Dye 780 (cat#65-0865-14, lot#, eBioscience). Perform the cytometry assay using FORTESSA.

JAK2 = JAK2 (Rattus norvegicus (Rat), UniProt Q62689); test: Rat PK/PD assay: rat whole blood ex vivo JAK2 activity (pSTAT5); type: in vivo; details: 30 mpk oral
Procedure: as §1

Sequence of JAK2 (Q62689 whole entry): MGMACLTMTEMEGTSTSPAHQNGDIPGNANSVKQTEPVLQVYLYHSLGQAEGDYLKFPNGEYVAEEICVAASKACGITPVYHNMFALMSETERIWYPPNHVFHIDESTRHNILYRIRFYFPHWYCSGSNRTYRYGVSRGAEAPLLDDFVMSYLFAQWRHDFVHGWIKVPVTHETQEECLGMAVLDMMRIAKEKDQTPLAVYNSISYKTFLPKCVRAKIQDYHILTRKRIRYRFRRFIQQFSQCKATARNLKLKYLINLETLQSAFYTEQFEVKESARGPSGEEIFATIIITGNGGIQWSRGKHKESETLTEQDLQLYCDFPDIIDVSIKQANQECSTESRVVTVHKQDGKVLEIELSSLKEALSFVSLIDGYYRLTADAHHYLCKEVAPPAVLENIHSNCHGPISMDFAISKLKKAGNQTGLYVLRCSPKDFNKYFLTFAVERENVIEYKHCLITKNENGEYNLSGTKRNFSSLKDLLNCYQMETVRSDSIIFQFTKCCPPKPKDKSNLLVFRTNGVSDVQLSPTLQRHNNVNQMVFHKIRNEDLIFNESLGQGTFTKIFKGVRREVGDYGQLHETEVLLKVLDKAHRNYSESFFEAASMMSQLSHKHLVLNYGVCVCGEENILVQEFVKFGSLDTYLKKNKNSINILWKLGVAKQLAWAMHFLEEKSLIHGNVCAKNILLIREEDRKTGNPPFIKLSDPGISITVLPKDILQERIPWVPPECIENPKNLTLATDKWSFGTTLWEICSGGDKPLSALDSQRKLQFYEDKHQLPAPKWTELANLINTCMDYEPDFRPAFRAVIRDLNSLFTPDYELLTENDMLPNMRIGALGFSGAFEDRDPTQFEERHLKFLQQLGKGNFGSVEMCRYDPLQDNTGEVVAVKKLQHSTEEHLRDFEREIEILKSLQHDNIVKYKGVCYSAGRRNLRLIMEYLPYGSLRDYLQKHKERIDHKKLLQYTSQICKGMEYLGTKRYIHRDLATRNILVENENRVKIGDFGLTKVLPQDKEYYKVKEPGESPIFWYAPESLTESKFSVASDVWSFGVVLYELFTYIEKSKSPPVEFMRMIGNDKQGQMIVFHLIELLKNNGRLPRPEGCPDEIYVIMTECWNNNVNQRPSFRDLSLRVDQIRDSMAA
T1 sequence (P23458 whole entry): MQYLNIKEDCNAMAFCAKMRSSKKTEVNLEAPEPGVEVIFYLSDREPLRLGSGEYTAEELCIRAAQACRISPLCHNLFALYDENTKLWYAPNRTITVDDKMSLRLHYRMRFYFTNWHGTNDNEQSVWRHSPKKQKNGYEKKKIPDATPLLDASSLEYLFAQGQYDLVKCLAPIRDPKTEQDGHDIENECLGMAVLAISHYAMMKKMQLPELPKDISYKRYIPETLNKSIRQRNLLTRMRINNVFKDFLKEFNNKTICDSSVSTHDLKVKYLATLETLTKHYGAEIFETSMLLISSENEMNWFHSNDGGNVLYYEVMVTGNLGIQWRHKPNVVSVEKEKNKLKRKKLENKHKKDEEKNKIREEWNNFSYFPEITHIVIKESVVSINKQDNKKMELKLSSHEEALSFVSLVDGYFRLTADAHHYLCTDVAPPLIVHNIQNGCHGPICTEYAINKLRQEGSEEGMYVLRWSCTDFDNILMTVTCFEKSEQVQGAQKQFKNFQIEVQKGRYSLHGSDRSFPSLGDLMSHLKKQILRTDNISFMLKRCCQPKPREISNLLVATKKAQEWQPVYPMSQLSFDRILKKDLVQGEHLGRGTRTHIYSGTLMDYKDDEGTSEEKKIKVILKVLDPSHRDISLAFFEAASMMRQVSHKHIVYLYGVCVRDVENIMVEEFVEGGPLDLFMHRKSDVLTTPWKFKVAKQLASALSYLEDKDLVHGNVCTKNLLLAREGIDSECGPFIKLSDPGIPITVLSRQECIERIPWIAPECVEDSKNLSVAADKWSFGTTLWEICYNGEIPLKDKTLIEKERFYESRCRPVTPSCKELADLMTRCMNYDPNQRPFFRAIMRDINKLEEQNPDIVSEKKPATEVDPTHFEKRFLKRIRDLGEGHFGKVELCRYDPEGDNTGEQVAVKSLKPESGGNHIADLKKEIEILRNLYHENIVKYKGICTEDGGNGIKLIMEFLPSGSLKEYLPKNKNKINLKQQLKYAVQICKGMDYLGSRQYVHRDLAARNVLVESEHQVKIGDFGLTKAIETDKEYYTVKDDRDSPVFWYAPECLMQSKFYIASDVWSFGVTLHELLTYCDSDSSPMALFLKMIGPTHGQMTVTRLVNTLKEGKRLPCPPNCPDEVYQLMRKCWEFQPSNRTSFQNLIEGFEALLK
Sequence of JAK1 (Rattus norvegicus, UniProt G3V9W2) (G3V9W2 1-1153): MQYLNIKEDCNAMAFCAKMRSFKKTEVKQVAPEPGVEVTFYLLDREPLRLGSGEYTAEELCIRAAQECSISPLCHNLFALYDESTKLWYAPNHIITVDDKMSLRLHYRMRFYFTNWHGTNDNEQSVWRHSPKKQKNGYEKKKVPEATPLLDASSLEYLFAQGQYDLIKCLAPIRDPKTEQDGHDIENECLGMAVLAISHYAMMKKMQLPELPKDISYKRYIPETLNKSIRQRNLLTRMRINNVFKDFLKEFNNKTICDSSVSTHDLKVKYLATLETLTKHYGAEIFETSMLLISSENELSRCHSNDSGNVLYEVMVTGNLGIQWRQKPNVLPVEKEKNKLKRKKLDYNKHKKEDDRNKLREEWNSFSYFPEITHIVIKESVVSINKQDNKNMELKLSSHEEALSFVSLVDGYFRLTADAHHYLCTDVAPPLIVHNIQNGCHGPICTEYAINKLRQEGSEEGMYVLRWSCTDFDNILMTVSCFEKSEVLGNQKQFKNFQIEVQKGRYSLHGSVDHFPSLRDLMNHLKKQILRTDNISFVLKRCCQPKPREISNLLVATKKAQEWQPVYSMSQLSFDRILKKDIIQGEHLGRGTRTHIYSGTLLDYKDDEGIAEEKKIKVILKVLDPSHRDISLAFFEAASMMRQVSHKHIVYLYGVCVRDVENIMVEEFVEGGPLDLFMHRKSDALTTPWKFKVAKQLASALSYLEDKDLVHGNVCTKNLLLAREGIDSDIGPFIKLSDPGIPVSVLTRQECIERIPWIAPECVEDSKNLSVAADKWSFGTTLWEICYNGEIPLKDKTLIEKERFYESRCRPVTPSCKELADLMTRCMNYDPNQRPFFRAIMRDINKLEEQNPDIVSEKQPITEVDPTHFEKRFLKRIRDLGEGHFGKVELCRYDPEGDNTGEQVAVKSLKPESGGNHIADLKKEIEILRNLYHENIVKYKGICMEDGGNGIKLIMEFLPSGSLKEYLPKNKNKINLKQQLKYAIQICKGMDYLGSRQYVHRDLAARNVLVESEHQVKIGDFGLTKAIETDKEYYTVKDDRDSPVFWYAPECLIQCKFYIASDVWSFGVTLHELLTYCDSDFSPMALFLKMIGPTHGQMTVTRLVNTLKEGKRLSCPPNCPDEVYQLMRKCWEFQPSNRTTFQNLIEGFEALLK

## COc1cc(Nc2cc(O[C@H]3CC[C@@H](NC[C@@H](O)C(F)(F)F)CC3)cc3c2ncn3C)nn1C [Example 6, (2R)-1,1,1-Trifluoro-3-{[cis-4-({4-[(5-methoxy-1-methyl-1H-pyrazol-3-yl)amino]-1-methyl-1H-benzimidazol-6-yl}oxy)cyclohexyl]amino}propan-2-ol]
JAK1 [1]
  IC50: 5.25 ± 1.11 nM
JAK1 [2]
  IC50: 3.65 ± 0.79 µM
JAK1 [3]; 2 hr post dosing, read-out: JAK1 inhibition 2 hr post dosing
  inhibition at 30 mg/kg: 83.5%
JAK1 [3]; 7 hr post dosing, read-out: JAK1 inhibition 7 hr post dosing
  inhibition at 30 mg/kg: 75.4%
JAK2; 2 hr post dosing, read-out: JAK2 inhibition 2 hr post dosing
  inhibition at 30 mg/kg: 17.7%
JAK2; 7 hr post dosing, read-out: JAK2 inhibition 7 hr post dosing
  inhibition at 30 mg/kg: 17.4%
